Several values for one entry are separate records, joined by “and”; a condition that tells them apart may be missing. Equal entries are not always repeated.
Experiments:
[1] = system: 22RV1 human prostate tumor xenograft; test: Anti-tumor study in 22RV1 xenograft mice; type: in vivo, CB.17 SCID mice; details: for Tumor Volume Day 26, individual mice: QD to End, Oral Gavage; for % T/C (mean tumor volume) / % T/C (median tumor volume) / Mean Tumor Volume / Median Tumor Volume: Day 26
Procedure: The objective of the xenograft mice study was to determine the anti-tumor activity of a composition made per Example 2.4 as a single agent versus abiraterone acetate in the 22RV1 human prostate tumor xenograft model. The study was conducted in CB.17 SCID mice injected with 22RV1 cells (5×10^6 cells/mouse) in the subcutaneous right flank. Tumors were grown to a mean tumor size between 100 and 150 mm^3 prior to study enrollment. The mice were dosed with the test article and reference once-daily by oral gavage per Table 12. Tumor volume was measured throughout the study. The study was terminated on day 26 when mean tumor volume of two experimental groups reached ≥1500 mm^3.

[2] = system: prostate specific antigen (PSA); details: 1,000 mg abiraterone acetate daily, well controlled trials; cited from earlier work
[3] = Abiraterone Acetate 22.4 mg/kg QD PO
[4] = Abiraterone Acetate 100 mg/kg QD PO

CC(=O)O[C@H]1CC[C@@]2(C)C(=CC[C@@H]3[C@@H]2CC[C@]2(C)C(c4cccnc4)=CC[C@@H]32)C1 [Abiraterone Acetate, (3β)-17(3-pyridinyl)androsta-5,16-dien-3-ol acetate]
Tumor Volume Day 26, individual mice ([1]; Abiraterone Acetate Dose #1, 22.4 mg/kg): 1,062 mm^3 and 1,389 mm^3 and 808 mm^3 and 1,555 mm^3 and 2,107 mm^3 and 726 mm^3 and 1,606 mm^3 and 1,119 mm^3 and 1,127 mm^3 and 1,143 mm^3
Tumor Volume Day 26, individual mice ([1]; Abiraterone Acetate Dose #2, 100 mg/kg): 1,609 mm^3 and 1,639 mm^3 and 1,084 mm^3 and 1,490 mm^3 and 1,429 mm^3 and 1,453 mm^3 and 1,152 mm^3 and 1,568 mm^3 and 1,287 mm^3 and 2,787 mm^3
% T/C (mean tumor volume) [1, 3]: 84.1%
% T/C (median tumor volume) [1, 3]: 72.8%
Mean Tumor Volume [1, 3]: 1264.2 mm^3
Median Tumor Volume [1, 3]: 1135.0 mm^3
% T/C (mean tumor volume) [1, 4]: 103.1%
% T/C (median tumor volume) [1, 4]: 94.4%
Mean Tumor Volume [1, 4]: 1549.4 mm^3
Median Tumor Volume [1, 4]: 1471.5 mm^3
tumor growth relative to vehicle control ([1]; once-daily oral gavage, low and high doses, 22RV1 xenograft mice): did not result in statistically different tumor growth
treated patients achieving target PSA reductions [2]: up to 60%

From patent US20190091339A1, “ABIRATERONE-CYCLIC OLIGOMER PHARMACEUTICAL FORMULATIONS AND METHODS OF FORMATION AND ADMINISTRATION THEREOF” (DISPERSOL TECHNOLOGIES, LLC, priority 2017, published 2019)
